Measurements as given in paper PMC3810412 (Bioorganic & medicinal chemistry letters, 2013).
Read-outs that look alike come from different tables or passages of the source.

How the values were obtained:
human NK1 receptors = human NK1 receptors (Homo sapiens, UniProt P25103); conditions: ratio; ref 3a; cited from earlier work
MVD (δ) = MVD (δ) (Mus musculus, UniProt P32300); conditions: read-out: MVD (δ) opioid agonist IC50; ref 3a; cited from earlier work
rodent model = conditions: ref 2a, cited from earlier work
rat NK1 receptors = rat NK1 receptors (Rattus norvegicus, UniProt P14600); conditions: read-out: rNK1 Ki; [3H]Substance P; ref 3a; cited from earlier work
Chain of rat NK1 receptors (P14600 whole entry): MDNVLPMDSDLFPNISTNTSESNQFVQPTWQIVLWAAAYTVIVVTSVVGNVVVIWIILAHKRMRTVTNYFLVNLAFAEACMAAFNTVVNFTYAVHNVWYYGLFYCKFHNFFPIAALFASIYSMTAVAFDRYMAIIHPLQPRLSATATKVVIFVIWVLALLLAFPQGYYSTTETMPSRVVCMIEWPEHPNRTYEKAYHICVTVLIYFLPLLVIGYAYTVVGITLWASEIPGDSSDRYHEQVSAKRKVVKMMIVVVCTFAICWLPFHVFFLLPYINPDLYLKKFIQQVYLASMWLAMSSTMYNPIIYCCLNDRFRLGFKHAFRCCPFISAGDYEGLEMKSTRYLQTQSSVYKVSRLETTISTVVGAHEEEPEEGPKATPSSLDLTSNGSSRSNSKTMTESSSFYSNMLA

GPI (μ) = GPI (μ) (Cavia porcellus, UniProt P97266); conditions: read-out: GPI (μ) opioid agonist IC50; ref 3a; cited from earlier work
[1] = target: T1, GPI, Substance P induced muscle contraction (Cavia porcellus, UniProt P30547); conditions: 1 μM naloxone; ref 3a; cited from earlier work
T1 sequence (P30547 whole entry): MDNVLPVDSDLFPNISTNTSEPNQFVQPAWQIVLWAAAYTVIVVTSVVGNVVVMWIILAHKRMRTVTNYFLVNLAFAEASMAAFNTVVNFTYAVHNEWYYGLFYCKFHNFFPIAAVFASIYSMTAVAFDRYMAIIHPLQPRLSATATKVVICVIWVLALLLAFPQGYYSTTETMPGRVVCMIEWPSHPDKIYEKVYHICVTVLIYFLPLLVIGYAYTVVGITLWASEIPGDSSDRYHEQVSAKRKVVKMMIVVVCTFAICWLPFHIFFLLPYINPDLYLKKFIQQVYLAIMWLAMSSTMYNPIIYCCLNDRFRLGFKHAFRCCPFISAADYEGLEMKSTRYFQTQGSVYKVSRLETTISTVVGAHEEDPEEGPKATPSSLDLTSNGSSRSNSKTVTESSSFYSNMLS

[2] = target: T1, GPI, Substance P induced muscle contraction; assay: GPI assay, Substance P antagonist; assay type: cell-based; conditions: in the presence of 1 μM naloxone, n = 4

Chain of MVD (δ) (P32300 whole entry): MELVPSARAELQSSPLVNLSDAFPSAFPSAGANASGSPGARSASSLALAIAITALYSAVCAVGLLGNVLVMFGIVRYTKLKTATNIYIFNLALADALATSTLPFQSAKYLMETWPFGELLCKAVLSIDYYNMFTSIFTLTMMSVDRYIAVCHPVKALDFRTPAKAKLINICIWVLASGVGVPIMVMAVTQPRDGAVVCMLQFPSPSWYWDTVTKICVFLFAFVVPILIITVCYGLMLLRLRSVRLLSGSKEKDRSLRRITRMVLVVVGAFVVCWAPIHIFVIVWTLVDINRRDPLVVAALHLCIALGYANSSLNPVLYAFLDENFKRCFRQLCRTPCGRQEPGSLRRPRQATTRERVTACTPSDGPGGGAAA
Chain of human NK1 receptors (P25103 whole entry): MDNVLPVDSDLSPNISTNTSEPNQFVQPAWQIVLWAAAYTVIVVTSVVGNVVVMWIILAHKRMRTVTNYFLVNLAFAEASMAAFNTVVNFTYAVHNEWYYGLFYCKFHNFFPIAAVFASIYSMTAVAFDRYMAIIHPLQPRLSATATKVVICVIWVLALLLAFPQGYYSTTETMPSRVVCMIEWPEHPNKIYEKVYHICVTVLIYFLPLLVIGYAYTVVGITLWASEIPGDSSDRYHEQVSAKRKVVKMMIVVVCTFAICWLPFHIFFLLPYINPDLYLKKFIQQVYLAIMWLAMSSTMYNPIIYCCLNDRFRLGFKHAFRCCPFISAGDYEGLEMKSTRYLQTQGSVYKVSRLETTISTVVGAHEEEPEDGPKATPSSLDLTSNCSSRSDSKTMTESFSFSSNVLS

| Molecule | Ki(hNK1)/Ki(rNK1) (human NK1 receptors) | IC50 (MVD (δ)) | opioid-induced tolerance (rodent model) | reward liability (rodent model) | effect on neuropathic pain (rodent model; rodent model) | Ki (rat NK1 receptors) | IC50 (GPI (μ)) | GPI Substance P antagonist Ke [1] | GPI Substance P antagonist Ke [2] |
| --- | --- | --- | --- | --- | --- | --- | --- | --- | --- |
| Tyr^1-DAla^2-Gly^3-Phe^4-Met^5-Pro^6-Leu^7-Trp^8-O-[3′,5′-Bzl(CF3)2] [compound 1] | 3.5 | 22 nM | no sign of opioid-induce tolerance | no development of reward liability | reverse neuropathic pain | 0.29 nM | 360 nM | 25 nM |  |
| CC(=O)N[C@@H](Cc1c[nH]c2ccccc12)C(=O)OCc1cc(C(F)(F)F)cc(C(F)(F)F)c1 [L-732,138] |  |  |  |  |  |  |  |  | 250 nM |
